From patent publication US8618099B2, “Pyrazolyl-pyrimidine derivatives and their use as potassium channel modulators” (Ataxion, Inc., priority 2008, dated 2013)

Key:
[1] = molecular target: T1, small-conductance Ca2+-activated K+ channels (SK channels, subtype 3), hSK3 (Homo sapiens, UniProt Q9UGI6); test: Whole-cell patch-clamp recording of ionic current through hSK3 channels expressed in HEK293 cells; type: cell-based; conditions: HEK293 cells expressing hSK3 channels
T1 construct: expressed in transfected cells; host or cells: HEK293
Method: The compounds of the invention may be tested for their usefulness as potassium channel modulating agents e.g. such as described in WO 2006/100212.
The ionic current through small-conductance Ca^2+-activated K^+ channels (SK channels, subtype 3) is recorded using the whole-cell configuration of the patch-clamp technique in a classic patch-clamp set-up using HEK293 tissue culture cells expressing hSK3 channels as described in e.g. WO 2006/100212
The SC100 value determined is defined as the Stimulating Concentration required for increasing the baseline current by 100%. The SC100 value determined for Compound 4.1 of the invention was 0.022±0.013 μM, which is an indication of its SK3 activating properties.

Question: For `Cc1cc(C)n(-c2nc(Nc3ccc(Cl)cc3)cc(N3CCOCC3)n2)n1` [Compound 4.1, (4-Chloro-phenyl)-[2-(3,5-dimethyl-pyrazol-1-yl)-6-morpholin-4-yl-pyrimidin-4-yl]-amine], which “SC100 (Stimulating Concentration required for increasing the baseline current by 100%)” value [1] is on record?
Answer: Its value is 0.022 ± 0.013 µM.

Question: And the melting point?
Answer: The melting point was 186 to 187 °C.
